In patent publication US9206193B2, “Substituted norindenoisoquinolines, syntheses thereof, and methods of use” (PURDUE RESEARCH FOUNDATION, priority 2010, dated 2015):
Like-named read-outs stand apart in the source and are kept apart here.

Tests used:
HOP-62 = experiment: NCI DTP antiproliferative screen, lung HOP-62; format: cell-based, human
Description: (§1) The norindenoisoquinolines are examined for antiproliferative activity in the National Cancer Institute's Developmental Therapeutics Program (DTP) (Boyd & Paull, Some Practical Considerations and Applications of the National Cancer Institute In Vitro Anticancer Drug Discovery Screen. Drug Development Res. 1995, 34, 91-109; Shoemaker, The NCI60 Human Tumour Cell Line Anticancer Drug screen. Nat. Rev. Cancer 2006, 6, 813-823). Each compound is evaluated against approximately 55 human cell lines representing leukemia, melanoma, and cancers of the lung, colon, brain, breast, ovary, prostate and kidney. After an initial one-dose assay at a single high dose (10^−5 M), only compounds that satisfy the pre-determined threshold inhibition criteria are selected for further 5-dose assay.

HCT-116 = experiment: NCI DTP antiproliferative screen, colon HCT-116; format: cell-based, human
Description: as §1

SF-539 = experiment: NCI DTP antiproliferative screen, CNS SF-539; format: cell-based, human
Description: as §1

UACC-62 = experiment: NCI DTP antiproliferative screen, melanoma UACC-62; format: cell-based, human
Description: as §1

SN12C = experiment: NCI DTP antiproliferative screen, renal SN12C; format: cell-based, human
Description: as §1

DU-145 = experiment: NCI DTP antiproliferative screen, prostate DU-145; format: cell-based, human
Description: as §1

MDA-MB-435 = experiment: NCI DTP antiproliferative screen, breast MDA-MB-435; format: cell-based; conditions: Homo sapiens
Description: as §1

[1] = test system: all human cancer cell lines successfully tested; experiment: NCI DTP antiproliferative screen, mean graph midpoint; format: cell-based; conditions: average GI50 of all cell lines tested; values outside 10^-8 to 10^-4 M taken as the limits
Description: as §1

Human recombinant Top1 = molecular target: T1, Human recombinant Top1 (Homo sapiens, UniProt P11387); experiment: Topoisomerase I-mediated DNA cleavage reactions; format: biochemical; design: key to Top1 cleavage: 0: no activity; +: weak activity; ++: similar activity as CPT; +++ and ++++: greater activity than CPT; ++++: similar activity as 1 uM CPT; conditions: for Top1 cleavage: semiquantitative, relative to 1 uM CPT, concentrations ranging up to 10 uM
T1 construct: made in house
T1 sequence (P11387 1-765): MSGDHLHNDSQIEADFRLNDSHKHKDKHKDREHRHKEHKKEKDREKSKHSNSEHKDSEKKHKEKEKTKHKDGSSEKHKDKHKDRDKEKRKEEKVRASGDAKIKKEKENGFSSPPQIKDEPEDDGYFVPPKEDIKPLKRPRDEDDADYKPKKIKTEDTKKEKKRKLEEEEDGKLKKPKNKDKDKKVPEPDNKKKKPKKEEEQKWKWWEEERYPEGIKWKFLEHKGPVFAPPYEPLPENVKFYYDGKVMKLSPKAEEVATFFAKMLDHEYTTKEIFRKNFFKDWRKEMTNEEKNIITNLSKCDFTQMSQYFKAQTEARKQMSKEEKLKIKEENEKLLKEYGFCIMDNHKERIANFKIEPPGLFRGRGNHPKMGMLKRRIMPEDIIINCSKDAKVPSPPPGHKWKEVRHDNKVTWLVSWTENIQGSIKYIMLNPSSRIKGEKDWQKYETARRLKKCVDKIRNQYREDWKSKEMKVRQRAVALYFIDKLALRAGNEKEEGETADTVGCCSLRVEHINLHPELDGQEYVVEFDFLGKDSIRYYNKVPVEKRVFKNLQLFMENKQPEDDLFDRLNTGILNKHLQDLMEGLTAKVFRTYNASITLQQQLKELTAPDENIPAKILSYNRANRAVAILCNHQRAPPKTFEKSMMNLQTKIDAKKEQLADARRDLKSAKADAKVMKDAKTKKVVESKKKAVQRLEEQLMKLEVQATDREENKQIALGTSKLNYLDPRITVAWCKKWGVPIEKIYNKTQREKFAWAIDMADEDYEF
Description: Norindenoisoquinolines 14a-f are examined for induction of Top1-mediated DNA cleavage using a 117-bp DNA oligonucleotide encompassing the previously identified Top1 cleavage sites in the 161-bp fragment from pBluescript SK(−) phagemid DNA (Dexheimer & Pommier DNA Cleavage Assay for the Identification of Topoisomerase I Inhibitors. Nat. Protocol. 2008, 3, 1736-1750).
Human recombinant Top1 was purified from baculovirus as previously described.^46 DNA cleavage reactions were prepared as previously reported with the exception of the DNA substrate.^13 Briefly, a 117-bp DNA oligonucleotide (Integrated DNA Technologies) encompassing the previously identified Top1 cleavage sites in the 161-bp fragment from pBluescript SK(−) phagemid DNA was employed. This 117-bp oligonucleotide contains a single 5′-cytosine overhang, which was 3′-end labeled by fill-in reaction with [α-^32P]-dGTP in React 2 buffer (50 mM Tris-HCl, pH 8.0, […], 50 mM NaCl) with 0.5 units of DNA polymerase I (Klenow fragment, New England BioLabs). Unincorporated ^32P-dGTP was removed using mini Quick Spin DNA columns (Roche, Indianapolis, Ind.), and the eluate containing the 3′-end-labeled DNA substrate was collected. Approximately 2 nM of radiolabeled DNA substrate was incubated with recombinant Top1 in 20 μL of reaction buffer [10 mM Tris-HCl (pH 7.5), 50 mM KCl, 5 mM MgCl2, 0.1 mM EDTA, and 15 μg/ml BSA] at 25° C. for 20 min in the presence of various concentrations of compounds. The reactions were terminated by adding SDS (0.5% final concentration) followed by the addition of two volumes of loading dye (80% formamide, 10 mM sodium hydroxide, 1 mM sodium EDTA, 0.1% xylene cyanol, and 0.1% bromphenol blue). Aliquots of each reaction were subjected to 20% denaturing PAGE. Gels were dried and visualized by using a Phosphoimager and ImageQuant software (Molecular Dynamics). For simplicity, cleavage sites were numbered as previously described in the 161-bp fragment.

OVCAR-3 = experiment: NCI DTP antiproliferative screen, ovarian OVCAR-3; format: cell-based, human
Description: as §1

[2] = 117-bp DNA substrate, gel of FIG. 2
[3] = Homo sapiens, HOP-62, read-out: Cytotoxicity GI50 Lung HOP-62
[4] = Homo sapiens, HCT-116, read-out: Cytotoxicity GI50 Colon HCT-116
[5] = Homo sapiens, read-out: Cytotoxicity GI50 CNS SF-539
[6] = Homo sapiens, UACC-62, read-out: Cytotoxicity GI50 Melanoma UACC-62
[7] = Homo sapiens, OVCAR-3, read-out: Cytotoxicity GI50 Ovarian OVCAR-3
[8] = Homo sapiens, SN12C, read-out: Cytotoxicity GI50 Renal SN12C
[9] = Homo sapiens, DU-145, read-out: Cytotoxicity GI50 Prostate DU-145
[10] = MDA-MB-435, read-out: Cytotoxicity GI50 Breast MDA-MB-435

Structure (SMILES) | Top1 cleavage (Human recombinant Top1) | 106 (C-T) cleavage site in Top1-mediated DNA cleavage pattern (Human recombinant Top1; [2]) | melting point | MGM (mean graph midpoint for growth inhibition) [1] | 44 (C-G) cleavage site in Top1-mediated DNA cleavage pattern (Human recombinant Top1; [2]) | GI50 (HOP-62; [3]) | GI50 (HCT-116; [4]) | GI50 (SF-539; [5]) | GI50 (UACC-62; [6]) | GI50 (OVCAR-3; [7]) | GI50 (SN12C; [8]) | GI50 (DU-145; [9]) | GI50 (MDA-MB-435; [10]) | further results
CC[C@@]1(O)C(=O)OCc2c1cc1n(c2=O)Cc2cc3ccccc3nc2-1 [CPT, camptothecin, reference compound] | ++++ |  |  | 0.0405 µM | not |  |  |  |  |  |  |  |  | GI50 (HOP-62; Homo sapiens, HOP-62, Table 2, read-out: Cytotoxicity GI50 Lung HOP-62): 10 nM; GI50 (HCT-116; Homo sapiens, HCT-116, Table 2, read-out: Cytotoxicity GI50 Colon HCT-116): 30 nM; GI50 (SF-539; Homo sapiens, Table 2, read-out: Cytotoxicity GI50 CNS SF-539): 10 nM; GI50 (UACC-62; Homo sapiens, UACC-62, Table 2, read-out: Cytotoxicity GI50 Melanoma UACC-62): 10 nM; GI50 (SN12C; Homo sapiens, SN12C, Table 2, read-out: Cytotoxicity GI50 Renal SN12C): 20 nM; GI50 (DU-145; Homo sapiens, DU-145, Table 2, read-out: Cytotoxicity GI50 Prostate DU-145): 10 nM; GI50 (MDA-MB-435; MDA-MB-435, Table 2, read-out: Cytotoxicity GI50 Breast MDA-MB-435): 40 nM; 37 (T-G) cleavage site in Top1-mediated DNA cleavage pattern (Human recombinant Top1; [2]): observed
COc1cc2cnc3c(c2cc1OC)Cc1cc2c(cc1-3)OCO2 [Compound 5, reference compound] |  | observed |  |  | seen |  |  |  |  |  |  |  |  | 97 (T-A) cleavage site in Top1-mediated DNA cleavage pattern (Human recombinant Top1; [2]): observed
COc1cc2cnc3c(c2cc1OC)Cc1c-3cc2c(c1CN(C)CCN(C)C)OCO2 [Compound 14f, 2,3-Dimethoxy-8,9-methylenedioxy-10-(N,N,N′-trimethylethylenediamino)methyl-11H-indeno[1,2-c]isoquinoline] |  |  |  | 6.3 µM |  |  |  |  |  |  |  |  |  | GI50 (HOP-62): 1500 nM; GI50 (HCT-116): 1900 nM; GI50 (SF-539): 11000 nM; GI50 (UACC-62): 730 nM; GI50 (OVCAR-3): 7400 nM; GI50 (SN12C): > 100000 nM; GI50 (DU-145): 3400 nM
COc1cc2cnc3c(c2cc1OC)Cc1c-3cc2c(c1C)OCO2 [Compound 15, 2,3-Dimethoxy-8,9-methylenedioxy-10-methyl-11H-indeno[1,2-c]isoquinoline] | ++ | observed | 272 to 274 °C (dec.) | 11.8 µM | seen | 7300 nM | 890 nM | 4600 nM | 700 nM | 5800 nM | > 100000 nM | > 100000 nM | > 100000 nM | 97 (T-A) cleavage site in Top1-mediated DNA cleavage pattern (Human recombinant Top1; [2]): observed
COc1cc2c3c(n(CCCNCCO)c(=O)c2cc1OC)-c1cc2c(cc1C3=O)OCO2 [MJ-III-65, reference compound] |  |  |  |  | seen |  |  |  |  |  |  |  |  | 62 (C-A) cleavage site in Top1-mediated DNA cleavage pattern (Human recombinant Top1; [2]): observed

Further lines, with some results ahead:

Top1 cleavage (Human recombinant Top1) | 106 (C-T) cleavage site in Top1-mediated DNA cleavage pattern (Human recombinant Top1; [2]) | melting point | Structure (SMILES) | MGM (mean graph midpoint for growth inhibition) [1] | 44 (C-G) cleavage site in Top1-mediated DNA cleavage pattern (Human recombinant Top1; [2]) | GI50 (HOP-62; [3]) | GI50 (HCT-116; [4]) | GI50 (SF-539; [5]) | GI50 (UACC-62; [6]) | GI50 (OVCAR-3; [7]) | GI50 (SN12C; [8]) | GI50 (DU-145; [9]) | GI50 (MDA-MB-435; [10]) | further results
+++ |  | 205 to 207 °C | COc1cc2cnc3c(c2cc1OC)Cc1c-3cc2c(c1CN(C)C)OCO2 [Compound 14a, 2,3-Dimethoxy-8,9-methylenedioxy-10-(dimethylamino)methyl-11H-indeno[1,2-c]isoquinoline] | 4.4 µM |  | 6700 nM | 1500 nM | 14000 nM | 12000 nM | 1400 nM | 13000 nM | 1600 nM | 16000 nM | 
+++ |  | 210 °C (dec.) | COc1cc2cnc3c(c2cc1OC)Cc1c-3cc2c(c1CN1CCCC1)OCO2 [Compound 14b, 2,3-Dimethoxy-8,9-methylenedioxy-10-(pyrrolidin-1-yl)methyl-11H-indeno[1,2-c]isoquinoline] | 2.3 µM |  | 1200 nM | 640 nM | 1900 nM | 6700 nM | 730 nM | 4400 nM | 730 nM | 2500 nM | 
++ | absent | 296 °C (dec.) | COc1cc2cnc3c(c2cc1OC)Cc1c-3cc2c(c1CN1CCN(C)CC1)OCO2 [Compound 14d, 2,3-Dimethoxy-8,9-methylenedioxy-10-(4-methylpiperazin-1-yl)methyl-11H-indeno[1,2-c]isoquinoline] |  |  |  |  |  |  |  |  |  |  | 
+ | absent |  | COc1cc2cnc3c(c2cc1OC)Cc1c-3cc2c(c1CN1CCOCC1)OCO2 [Compound 14e, 2,3-Dimethoxy-8,9-methylenedioxy-10-(4-morpholino)methyl-11H-indeno[1,2-c]isoquinoline] | 2.4 µM |  |  |  |  |  |  |  |  |  | GI50 (HOP-62): 2100 nM; GI50 (HCT-116): 1400 nM; GI50 (SF-539): 1800 nM; GI50 (UACC-62): ≥ 100000 nM; GI50 (OVCAR-3): 1700 nM; GI50 (SN12C): 2300 nM; GI50 (DU-145): 1900 nM
